We go through two substances from patent US8900564B2, “Vaccine composition comprising an antigen and a peptide having adjuvant properties” (Valneva Austria GmbH, priority 2000, dated 2014).

Entries after “also recorded” stand apart in the source; their conditions may differ. Ends that are not written are not given here.

Experiment [1] relates to IFN-γ-producing specific cells (lymph node cells). As to the kind of experiment: Induction of peptide-specific T cell responses in vivo, IFN-γ ELISpot of lymph node cells after vaccination with TRP-2 peptide. More on the design: species or system mice (C57BL/6). As to the method: For testing the ability of the (synthetic antimicrobial) peptide KLKLLLLLKLK (SEQ ID NO: 1) to enhance the induction of peptide-specific T cell responses in vivo, groups of 4 mice (C57BL/6, female, 8 weeks of age, H-2b) were injected subcutaneously into the flank 3 times (days 0, 28, and 56), with an antigenic melanoma peptide (100 μg) derived from TRP-2 (mouse tyrosinase related protein-2) alone or in combination with either poly-Larginine or the (synthetic antimicrobial) peptide KLKLLL. LKLK (SEQ ID NO: 1) as “carrier peptide”. The amounts of the (synthetic antimicrobial) peptide KLKLLLLLKLK (SEQ ID NO: 1) used represent four different amounts at concentrations representing the equal amount (100 μg) of poly-L-arginine in terms of μg, the equal (168 μg), the double (336 μg) and the triple (504 μg) amount of poly-L-arginine in terms of positive charges. The groups of mice were injected as follows (amounts indicated/per mouse). • (1) 100 μg peptide • (2) 100 μg peptide+100 μg poly-L-arginine (pR 60) • (3) 100 μg peptide+100 μg KLKLLLLLKLK (SEQ ID NO: 1) • (4) 100 μg peptide+168 μg KLKLLLLLKLK (SEQ ID NO: 1) • (5) 100 μg peptide+336 μg KLKLLLLLKLK (SEQ ID NO: 1) • (6) 100 μg peptide+504 μg KLKLLLLLKLK (SEQ ID NO: 1) […]

For experiment [2], the system named is P388D1 cells (murine monocyte-macrophage antigen presenting cell line). As to the kind of experiment: TRANSloading of murine macrophages: uptake of fluorescein-tagged antigenic peptide with carrier peptide, flow cytometry. The class given is cell-based. The following applies: Example 1, FIG. 1; 2 μg antigenic peptide; carrier at 101.7, 50.9 and 5.09 nmol positive charges; 1 h at 37° C. From the text: To test if the (synthetic antimicrobial) peptide KLKLLLLLKLK (SEQ ID NO: 1) is able to function as “carrier-peptide” for antigens, to TRANSload APCs in vitro, which means enhancing the antigen uptake into APCs, a fluorescently labelled peptide was used as antigenic peptide. It was mixed with diverse concentrations of KLKLLLLLKLK (SEQ ID NO: 1) and other previously described “carrier-peptides” as indicated.
To compare the efficiency of peptide delivery of these diverse “carrier-peptides”, the amount of peptide uptake into APCs was monitored by incubating P388D1 cells (murine monocyte-macrophage antigen presenting cell line; purchased from ATCC (TIB-63)) for 1 h at 37° C. with a constant amount of fluorescein-tagged peptide alone or in combination with diverse “carrier-peptides” at concentrations indicated. Before analysing the cells by flow cytometry, the cells were washed extensively to remove free peptide. The relative amount of fluorescein-tagged peptide taken up by the cells was measured by flow cytometry.
The antigenic peptide used is an influenza-haemagglutinin-derived MHC class I (Kd) binding peptide (Buschle, M. (1997)). 2 μg of this fluorescein-tagged antigenic peptide (LFEAIEGFI) (SEQ ID NO:22) were mixed with 3 different amounts of each carrier peptide tested at concentrations representing 101.7, 50.9 and 5.09 nmol positive charges. […]

Experiment [3] has as its system human neutrophils. As to conditions: via cell surface calreticulin; cited from earlier work.
The test system of experiment [4] is Staphylococcus aureus. As to conditions: Staphylococcus aureus-infected mice; cited from earlier work.

Consider “KLKLLLLLKLK [synthetic antimicrobial peptide used as carrier peptide/adjuvant]”, for which the “IFN-γ-producing T cells specific for the carrier peptide itself, ELISpot” value in experiment [1] (ELISpot-assay) was “does not elicit IFN-γ-producing peptide-specific T cells”. In addition, the “IFN-γ-producing specific cells (TRP-2 peptide-specific), ELISpot” value in experiment [1] (FIG. 3, s.c. days 0, 28, 56, 100 μg TRP-2 peptide plus 100-504 μg carrier, 12 days after 3rd vaccination, versus peptide alone or with poly-L-arginine) is reported as “many more IFN-γ-producing specific cells; also recorded: enhances the induction of peptide-specific T cell responses in vivo”. Moreover, in experiment [2], the “fluorescence of TRANSloaded cells (uptake of fluorescein-tagged peptide LFEAIEGFI)” value was “high and intense fluorescence”.
Consider “KLKLLLLLKLK-NH2 [synthetic antimicrobial peptide, amidated form]”, for which the “superoxide anion (O2−) production” value in experiment [3] was “activated to produce the superoxide anion”. Also, the chemotherapeutic activity result in experiment [4] was “significant chemotherapeutic activity”.
